Experimental data published in patent US11912790B2, “Peptide compounds and therapeutic uses of same” (Immunity Pharma Ltd., priority 2018, dated 2024).
Entries after “also recorded” stand apart in the source; their conditions may differ. No end group written: not given here.

Assays:
[1] = tested on: BALB/c mice; experiment: Dexamethasone-induced spleen and thymus weight and cell count loss in mice, Example 2 (FIG. 2); assay type: in vivo; conditions: 100 μg Dexamethasone IP, peptide IV 200 μg/mouse immediately and 24 h after, sacrifice at 48 h
Description: (§1) BALB/c mice were used to examine the ability of candidate peptides to rescue lymphocyte cells from apoptosis. Mice were injected IP with 100 μg of Dexamethasone. Dexamethasone-treated mice received immediately following and 24-hours after dexamethasone treatment IV injection of candidate peptides (200 μg peptide/mouse). Mice were sacrificed 48 hours after the first treatment. The spleen and the thymus were weighted and full cell count of both organs was performed.

[2] = tested on: BALB/c mice; experiment: Dexamethasone-induced spleen and thymus weight and cell count loss in mice, Example 1 (FIG. 1); assay type: in vivo, mouse; conditions: 100 μg Dexamethasone IP; for reduction of cell count loss (spleen and thymus) / reduction of the amount of dexamethasone-induced spleen and/or thymus weight loss: BALB/c mice, peptide IV 250 or 400 μg/mouse immediately and 24 h after, sacrifice at 48 h, no difference between the 2 doses
Description: The peptides described herein are capable of reducing the amount of dexamethasone-induced spleen and/or thymus weight loss in a mouse—e.g. following injection (IP) with 100 μg of Dexamethasone.
as §1, with “Dexamethasone is a corticosteroid medication that induces apoptosis of immune cells and lymphomyeloid tissues. BALB/c” for “BALB/c”, “(250 or 400” for “(200”

## PPLAYP [SEQ ID NO: 18]
[1]
  reduction of the amount of dexamethasone-induced spleen and/or thymus weight loss: significant improvement

## PPLPY (not fully specified (C-terminus)) [SEQ ID NO: 3]
[2]
  reduction of cell count loss (spleen and thymus): significant effect
  reduction of the amount of dexamethasone-induced spleen and/or thymus weight loss: significant effect; also recorded: significantly reduced

## C[C@@H]1C[C@H]2[C@@H]3CCC4=CC(=O)C=C[C@]4(C)[C@@]3(F)[C@@H](O)C[C@]2(C)[C@@]1(O)C(=O)CO [Dexamethasone, reference compound]
[2]; 48 h, compared to normal mice
  spleen and thymus weight loss and reduction in spleen cell count induced by dexamethasone: about 50%
  thymus cell count reduction induced by dexamethasone: ~80%

## LPPLAYP [SEQ ID NO: 4]
[2]
  reduction of cell count loss (spleen and thymus): significant effect
  reduction of the amount of dexamethasone-induced spleen and/or thymus weight loss: significant effect; also recorded: significantly reduced
